Source: patent US7368582B2, “Amidomethyl-substituted 2-(4-sulfonylamino)-3-hydroxy-3,4-dihydro-2H-chromen-6-yl compounds, a process and intermediates for their production, and pharmaceutical compositions containing them” (Solvay Pharmaceuticals GmbH, priority 2003, dated 2008)

Key:
[1] = system: left atrium of rats' hearts; assay: Functional refractory period prolongation on isolated left atria of rats' hearts in vitro; parameters: species or system rat (Sprague-Dawley); conditions: 10 μM
Description: 3. Investigation of the Functional Effectiveness of the Substances on the Atrium of Rats' Hearts in Vitro
In this test model it is determined to what extent the Kv 1.5-blocking substances of Formula I result in a prolongation of the functional refractory period in the left atrium of rats. The refractory period is the minimum possible elapsed time between the basic stimulus and additional stimulus in which a renewed contraction can be triggered. The extent of the prolongation of the functional refractory period is a measurement of the antiarrhythmic effectiveness of the substances according to the invention. The functional refractory period is determined by testing on the electrically stimulated preparation at what elapsed time from the preceding contraction a renewed contraction can be triggered by additional electrical stimuli.
The hearts were removed from freshly sacrificed rats (Sprague-Dawley, Charles-River, Germany). The left atria were isolated and fastened to force transducers in a temperature-controlled (30° C.), gasified (O2 95%, CO2 5%) organ bath which was filled with modified Tyrode solution (all values in mM: NaCl 137; KCl 2.7; CaCl2 1.8; MgCl2 0.8; NaHCO3 11.9; NaH2PO4 0.6; glucose 5). In order to trigger regular contractions, the preparations were electrically stimulated (rectangular pulses, pulse magnitude 3.5× threshold stimulus, pulse width 1.5 ms, frequency 1 Hz). Initially, the initial value of the functional refractory period was determined by applying extra pulses in addition to the basic stimulus, the elapsed time from the preceding basic stimulus being shortened until no further additional contraction could be triggered. Then the cumulative addition of increasing concentrations (0.1-10 μM) of the substances of Formula I took place at intervals of 20 min. each, the refractory period being determined again in each case 18 min. after the addition had taken place. Before the measurement, stock solutions of the test substances (3.2 and 0.32 mM in 100% DMSO) were prepared. In order to achieve the desired final concentrations of the substances (0.1-10 μM) in the organ bath (volume 100 ml), corresponding volumes of these stock solutions were then poured into the organ bath.
In each case the prolongation of the functional refractory period (FRP) in the left atrium of the rats' hearts in milliseconds observed after the addition of 10 μM of the respective substance of Formula I to the atrial preparations was given as characteristic variable.

[2] = molecular target: T1, Kv 1.5-potassium channel (Homo sapiens, UniProt P22460); assay: In-vitro Kv 1.5-potassium channel-blocking effect (Rb+ outflow from CHO cells, atomic absorption spectroscopy); type: cell-based; conditions: CHO cells stably expressing Kv 1.5, read-out: IC50 (Kv1.5-potassium channel-blocking effect, concentration of half-maximum inhibition)
T1 construct: expressed in transfected cells
T1 sequence (P22460 whole entry): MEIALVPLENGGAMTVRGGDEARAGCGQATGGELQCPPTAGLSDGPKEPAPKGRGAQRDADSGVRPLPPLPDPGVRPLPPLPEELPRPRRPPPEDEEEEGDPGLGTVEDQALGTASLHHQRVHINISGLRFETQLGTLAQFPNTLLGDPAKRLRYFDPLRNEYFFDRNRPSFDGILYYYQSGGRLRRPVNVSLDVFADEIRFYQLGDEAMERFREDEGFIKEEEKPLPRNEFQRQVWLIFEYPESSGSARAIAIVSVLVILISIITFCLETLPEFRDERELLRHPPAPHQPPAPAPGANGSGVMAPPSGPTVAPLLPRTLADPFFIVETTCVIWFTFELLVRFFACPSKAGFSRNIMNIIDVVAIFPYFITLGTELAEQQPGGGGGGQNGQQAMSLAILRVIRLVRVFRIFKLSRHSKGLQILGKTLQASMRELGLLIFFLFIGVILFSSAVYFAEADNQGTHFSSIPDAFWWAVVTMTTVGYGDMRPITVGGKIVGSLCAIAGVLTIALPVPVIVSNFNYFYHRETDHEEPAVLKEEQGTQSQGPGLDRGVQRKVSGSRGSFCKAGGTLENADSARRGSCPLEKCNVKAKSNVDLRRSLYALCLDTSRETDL
Description: 1. In-Vitro Investigation of the Kv 1.5-Potassium Channel-Blocking Effect of the Substances
In this test model, a cell line of egg cells of the Chinese hamster (=“Chinese hamster oocytes”, “CHO”) is used which originates from a single cell and stably expresses the Kv 1.5-channel. By incubation overnight in a nutrient medium containing RbCl or a “loading buffer” (all values in mM: RbCl 5, NaCl 140, CaCl2 2, MgSO4 1, HEPES buffer 10, glucose 5) the aforementioned oocytes are loaded with Rb^+ under the influence of Na^+/K^+-ATPase. Thereafter, a portion of the oocytes is incubated as a reference standard in the absence of an inhibitor, while another portion of the oocytes is incubated in the presence of the respective inhibitory test substance of Formula I. Then the oocytes are depolarized by increasing the extracellular potassium-ion concentration, which causes the Kv 1.5-potassium channels of the oocytes to open. In the absence of an inhibitor, the Rb^+ ions flow through the Kv 1.5-potassium channels into the liquid surrounding them. In the presence of an inhibitory test substance of Formula I, on the other hand, the Rb^+ ions remain locked within the oocytes. The extent of the Kv 1.5-potassium channel-blocking effect of the test substances of Formula I is determined by measuring the Rb^+ ion concentration in the liquid surrounding them by means of atomic absorption spectroscopy against a reference standard.
Chinese hamster oocytes (see above) were cultivated in a known, RbCl-containing nutrient medium for CHO-cells and placed in the sample wells of a 96-sample capacity sample plate (“96 well plate”). The oocytes were allowed to grow overnight in order to obtain monolayers of the oocytes. Then the nutrient medium was pipetted off, and each sample well was washed three times with 100 μl portions of a preincubation buffer of low potassium-ion concentration (all values in mM: KCl 5, NaCl 140, CaCl2 2, MgSO4 1, HEPES buffer 10, glucose 5). Then 50 μl of a solution of the respective test substance (stock solution in DMSO, dilution with preincubation buffer, final concentration in the test batch 10 μM) or of the solvent (as negative controls) was added to each sample well and incubated for 10 min. in each case at room temperature. Then 50 μl of a stimulation buffer with elevated potassium-ion concentration (KCl 145 mM, NaCl 0 mM, otherwise as preincubation buffer) was added to each sample well and the samples were then incubated for a further 10 min. at room temperature. In each case, 80 μl of the liquid surrounding the oocytes from each sample well was then transferred separately to the sample wells of an analysis sample plate, and the Rb^+ ion concentration in the liquids was determined by atomic absorption spectroscopy. The test substances were each double-tested. The signal section which represented the Kv 1.5 component of the Rb^+ outflow was defined by using as positive control the known potassium channel blocker 4-AP in a high concentration (100×IC50 for the Kv 1.5 channel). This made it possible to determine which portion of the Rb^+ outflow was dependent on the influence of the 4-AP and therefore is to be assigned to the Kv 1.5 channel. For the substances which in the concentration of 10 μM used led to a reduction in the Rb^+ outflow of at least 50%, additional tests were performed with lower concentrations of the test substances in order to be able to determine the half-maximum effective concentration. In each case the concentration of half-maximum inhibition of the test substances of Formula I (IC50) was given as characteristic variable.

[3] = molecular target: T2, Kv 1.3-potassium channel (Homo sapiens, UniProt P22001); assay: In-vitro Kv 1.3-potassium channel-blocking effect (membrane potential-sensitive fluorescent dye in transfected CHO cells); type: cell-based; conditions: 10 μM test substance; CHO cells transfected with Kv 1.3; relative to reference margatoxin
T2 construct: expressed in transfected cells; host or cells: CHO cells, stably transfected with the Kv 1.3 plasmid using DMRIE-C
T2 sequence (P22001 whole entry): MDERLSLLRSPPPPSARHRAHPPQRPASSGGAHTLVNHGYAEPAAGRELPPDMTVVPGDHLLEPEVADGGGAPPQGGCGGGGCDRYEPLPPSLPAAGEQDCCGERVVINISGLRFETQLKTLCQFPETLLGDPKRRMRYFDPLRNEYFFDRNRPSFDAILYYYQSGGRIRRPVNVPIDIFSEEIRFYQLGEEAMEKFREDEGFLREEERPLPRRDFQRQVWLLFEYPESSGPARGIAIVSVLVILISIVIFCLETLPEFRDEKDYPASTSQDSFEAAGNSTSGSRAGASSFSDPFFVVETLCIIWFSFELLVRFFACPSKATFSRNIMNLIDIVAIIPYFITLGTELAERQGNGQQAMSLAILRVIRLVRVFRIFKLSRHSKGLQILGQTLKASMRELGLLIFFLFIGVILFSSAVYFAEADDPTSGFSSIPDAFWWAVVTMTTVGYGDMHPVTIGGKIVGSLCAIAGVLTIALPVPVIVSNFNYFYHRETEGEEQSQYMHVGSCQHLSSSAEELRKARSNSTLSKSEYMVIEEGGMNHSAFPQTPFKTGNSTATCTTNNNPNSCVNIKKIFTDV
Text: 2. In-Vitro Investigation of the Kv 1.3-Potassium Channel-Blocking Effect of the Substances
In this test model, known oocytes of the Chinese hamster (═CHO) are used which are stably transfected with the Kv 1.3-potassium channel. The blockade of the cell-inherent Kv 1.3-potassium channel activity in the transfected cells is accompanied by a positive shift in the membrane potential from approx. −40 mV to −30 mV, whereas in the wild-type CHO cells investigated in parallel no significant shift in the membrane potential is triggered. A change in the membrane potential is thus connected to the reduction in the Kv 1.3-potassium channel activity. By blocking the Kv 1.3-potassium channels e.g. with substances of Formula I and the resulting change in the membrane potential, an accumulation of a membrane potential-sensitive fluorescent dye in intracellular compartments of the oocytes and ultimately increasing fluorescence occurs. The change in the membrane potential of the oocytes is therefore measured indirectly via the increase in fluorescence of the membrane potential-senstive dyes.
The cells were transfected with the Kv 1.3 plasmid in known manner with a commercially obtainable transfection reagent (DMRIE-C from Gibco BRL, Germany). The successful transfection was verified by immunofluorescence and by “patch-clamp” investigations of the potassium ion current. The fluorescence measurements were performed on a Tecan Safire fluorescence reader from Tecan, Germany. In each case, the increase in the fluorescent intensity caused by the blockade of the Kv 1.3-potassium channels in the oocytes with substances of Formula I in a concentration of 10 μM was determined as characteristic variable. The increase in the fluorescent intensity was given in each case in percent (%) compared with an increase in the fluorescent intensity caused by the reference substance margatoxin. Margatoxin is known as a selective Kv 1.3-potassium channel blocker (see e.g. M. Garcia-Calvo et al., J. Biol. Chem. 268 (1993) 18866-18874).

Row | SMILES | FRP prolongation [1] | IC50 [2] | Increase in the fluorescent intensity (% margatoxin) [3]
1 | Cc1ccc(S(=O)(=O)NC2c3cc(CC(=O)NC4CCCc5ccccc54)ccc3OC(C)(C)C2O)cc1 (mixture of isomers) [Example 15] | 30 ms | 4 µM | –
2 | Cc1cccc(S(=O)(=O)NC2c3cc(CC(=O)NCc4ccc(Cl)cc4)ccc3OC(C)(C)C2O)c1 (stereo not shown) [Example 5, N-(4-chlorobenzyl)-2-(3-hydroxy-2,2-dimethyl-4-{[(3-methylphenyl)sulfonyl]amino}-3,4-dihydro-2H-chromen-6-yl)acetamide] | – | 5 µM | 82 % margatoxin
3 | CCCCNC(=O)Cc1ccc2c(c1)C(N(CC(CC)CC)S(=O)(=O)c1cc(OC)ccc1OC)C(O)C(C)(C)O2 (stereo not shown) [Example 6] | – | 2.9 µM | 97 % margatoxin
4 | CCCCNC(=O)Cc1ccc2c(c1)C(NS(=O)(=O)c1ccc(I)cc1)C(O)C(C)(C)O2 (stereo not shown) [Example 17] | – | 2.65 µM | 72 % margatoxin
5 | Cc1ccc(S(=O)(=O)N(CC2CC2)C2c3cc(CC(=O)NCc4ccccc4)ccc3OC(C)(C)C2O)cc1 (stereo not shown) [Example 18] | – | 2.7 µM | 141 % margatoxin
6 | Cc1ccc(S(=O)(=O)N(CCC(C)C)C2c3cc(CC(=O)NCc4ccccc4)ccc3OC(C)(C)C2O)cc1 (stereo not shown) [Example 19] | – | 2.5 µM | 171 % margatoxin
7 | CCC(CC)CN(C1c2cc(CC(=O)NCc3ccco3)ccc2OC(C)(C)C1O)S(=O)(=O)c1cc(OC)ccc1OC (stereo not shown) [Example 21] | – | 3.3 µM | 86 % margatoxin
8 | CCCCCN(C1c2cc(CC(=O)NC(C)C(C)C)ccc2OC(C)(C)C1O)S(=O)(=O)c1cccc(OC)c1 (stereo not shown) [Example 22] | – | 3.4 µM | 71 % margatoxin
9 | CC(C)CCN(C1c2cc(CC(=O)NCc3ccccc3)ccc2OC(C)(C)C1O)S(=O)(=O)c1ccc(C(F)(F)F)cc1 (stereo not shown) [Example 23] | – | 4.3 µM | 41 % margatoxin
10 | CCCNC(=O)Cc1ccc2c(c1)C(N(CC(C)C)S(=O)(=O)c1ccc(F)c(Cl)c1)C(O)C(C)(C)O2 (stereo not shown) [Example 24] | – | 5 µM | –
11 | CC(C)CCN(C1c2cc(CC(=O)NCc3ccccc3)ccc2OC(C)(C)C1O)S(=O)(=O)c1ccc2ccccc2c1 (stereo not shown) [Example 25] | – | 5.2 µM | –
12 | CCCNC(=O)Cc1ccc2c(c1)C(N(CCC(C)C)S(=O)(=O)c1ccc(-c3ccccc3)cc1)C(O)C(C)(C)O2 (stereo not shown) [Example 26] | – | 5.2 µM | –
13 | COc1cccc(S(=O)(=O)N(CCC(C)C)C2c3cc(CC(=O)NCc4ccc(Cl)cc4)ccc3OC(C)(C)C2O)c1 (stereo not shown) [Example 27] | – | 5.6 µM | –
